# Data taken from US20110105457A1, “HETEROCYCLIC COMPOUND HAVING INHIBITORY ACTIVITY ON PI3K” (SHIONOGI & CO., LTD., priority 2008, published 2011).
# How the values were obtained:
# PI-3 kinase γ = PI-3 kinase γ (Homo sapiens, UniProt P48736); assay: PI3Kγ inhibitory activity, PI3-kinase HTRF assay (Millipore); type: biochemical; conditions: 0.5 h; compound 50 μM; read-out: Inhibition ratio % (50 μM)
# Protocol: (Method) The PI3Kγ inhibitory activity of a compound was evaluated using PI3-kinase HTRF™ assay (Millipore) according to the following procedure.
# To each well of a testing plate was added 5 μL of a compound solution comprising 10% DMSO (200 μM as the concentration of the compound), 5 μL of 40 μM phosphatidylinositol (4,5)-bisphosphate/20 mM MgCl2/10 mM DTT, and 5 μL of 80 μg/mL PI-3 kinase γ/10 mM MgCl2/5 mM DTT, and then stood for 10 minutes.
# Then, 5 μL of 40 μM ATP/10 mM MgCl2/5 mM DTT was added thereto. After reacting for 30 minutes at room temperature, 5 μL of a solution comprising EDTA and biotinylated phosphatidylinositol (3,4,5)-triphosphate was added to quench the reaction.
# 5 μL of a detection reagent comprising a europium-labeled anti-GST antibody, the GST-tagged PH domain, and allophycocyanin-labeled streptavidin was added thereto. After 18 hours, HTRF (excitation wavelength: 330 nm, measuring wavelengths: 620 nm and 665 nm) was measured.
# A value of dividing an amount of fluorescence obtained at the measuring wavelength 665 nm by an amount of fluorescence obtained at 620 nm was defined as an HTRF ratio. The HTRF ratio in the absence of a compound was defined as 100% activity, and the HTRF ratio in the absence of PI-3 kinase γ was defined as 0% activity to calculate an inhibition ratio.
# [1] = Metabolic stability test, pooled human liver microsome; type: in vitro ADME; conditions: human liver microsome 0.5 mg protein/mL, NADPH, 37 degrees Celsius, 30 minutes
# Protocol: After a subject compound was reacted for a certain time using a pooled human liver microsome commercially available, a reacted sample and an unreacted sample are compared to calculate a survival ratio, and then the degree of metabolism in the liver was evaluated.
# 0.2 mL of a buffer solution (50 mmol/L of Tris-HCl in pH 7.4, 150 mmol/L of potassium chloride, and 10 mmol/L of magnesium chloride) containing a human liver microsome of 0.5 mg protein/mL was reacted in the presence of 1 mmol/L NADPH at 37 degrees Celsius for 0 or 30 minutes (oxidative reaction). After reacting, 50 μL of the reaction solution was added to 100 μL of a solution of methanol/acetonitrile (1/1(v/v)), mixed, and then centrifuged at 3000 rpm for 15 minutes. A test compound in the supernatant was quantitated with LC/MS/MS. An amount of the compound remained at a reaction time of 0 minute was defined as 100%, and, based on that, an amount of the test compound remained after the reaction was calculated.
# [2] = system: AKT phosphorylation (Ser473) in THP-1 cells; assay: AKT phosphorylation inhibitory activity in MCP-1 stimulated THP-1 cells (ELISA); type: cell-based, human; conditions: MCP-1 stimulation, compound concentration not given
# Protocol: (1) The AKT phosphorylation inhibitory activity of a compound was evaluated according to the following procedure. (2) Human monocyte-like cell line THP-1 was washed with RPMI-1640 media, incubated in the presence of 5% CO2 at 37 degrees Celsius for 3 hours, washed with Hank's balanced salt solution (HBSS), adjusted to a cell concentration of 6.6×10^6/mL, and then used in an experiment. (3) 30 μL of the cell suspension and 60 μL of each compound solution comprising 0.2% DMSO/HBSS are mixed, and then preincubated at 37 degrees Celsius for 5 minutes. 30 μL of HBSS comprising 4 μg/mL of MCP-1 was added thereto, and then incubated for 30 seconds at 37 degrees Celsius. (4) 30 μL of 20 mM Tris-HCl (pH 7.5)/150 mM NaCl/1 mM Na2EDTA/1 mM EGTA/1% Triton/2.5 mM sodium pyrophosphate/1 mM β-glycerophosphate/1 mM Na3VO4/1 μg/ml leupeptin/50 nM APMSF was added thereto to dissolve cells. (5) The amount of AKT phosphorylation in a cell solution was measured by ELISA method. (6) To a micro well plate to which anti-phospho-Akt (Ser473) antibody (clone 193H12, derived from a rabbit) was solid-phased was added 100 μL of a prepared cell solution, incubated for 2 hours at 37 degrees Celsius, and then washed four times with Phosphate Buffered Saline/0.05% Tween-20. (7) An anti-AKT1 antibody (clone 2H10, derived from a mouse) was added thereto, incubated for 1 hour at 37 degrees Celsius, washed similarly, and then reacted with an HRP-labeled anti-mouse IgG antibody. (8) After incubating at 37 degrees Celsius for 30 minutes and then washing similarly, 100 μL of TMB (3,3′,5,5″-tetramethylbenzidine) was added thereto, followed by reacting at room temperature for 30 minutes. (9) 100 μL of 1 mol/L sulfuric acid was added to quench the color reaction, and then the absorbance at 450 nm was measured. (10) A series of diluted cell solutions of a positive control (a sample in the absence of a compound) were used as a calibration curve, the amount of AKT phosphorylation in a sample in the absence of MCP-1 was defined as 0% activity to calculate an inhibition ratio.
# [3] = target: T1, human ether-a-go-go related gene (hERG) channel (Homo sapiens, UniProt Q12809); assay: hERG test, whole-cell patch-clamp in HEK293 cells; type: cell-based; conditions: HEK293 cells expressing hERG; concentration not given
# T1 construct: expressed in transfected cells; host or cells: HEK293
# T1 sequence (Q12809 whole entry): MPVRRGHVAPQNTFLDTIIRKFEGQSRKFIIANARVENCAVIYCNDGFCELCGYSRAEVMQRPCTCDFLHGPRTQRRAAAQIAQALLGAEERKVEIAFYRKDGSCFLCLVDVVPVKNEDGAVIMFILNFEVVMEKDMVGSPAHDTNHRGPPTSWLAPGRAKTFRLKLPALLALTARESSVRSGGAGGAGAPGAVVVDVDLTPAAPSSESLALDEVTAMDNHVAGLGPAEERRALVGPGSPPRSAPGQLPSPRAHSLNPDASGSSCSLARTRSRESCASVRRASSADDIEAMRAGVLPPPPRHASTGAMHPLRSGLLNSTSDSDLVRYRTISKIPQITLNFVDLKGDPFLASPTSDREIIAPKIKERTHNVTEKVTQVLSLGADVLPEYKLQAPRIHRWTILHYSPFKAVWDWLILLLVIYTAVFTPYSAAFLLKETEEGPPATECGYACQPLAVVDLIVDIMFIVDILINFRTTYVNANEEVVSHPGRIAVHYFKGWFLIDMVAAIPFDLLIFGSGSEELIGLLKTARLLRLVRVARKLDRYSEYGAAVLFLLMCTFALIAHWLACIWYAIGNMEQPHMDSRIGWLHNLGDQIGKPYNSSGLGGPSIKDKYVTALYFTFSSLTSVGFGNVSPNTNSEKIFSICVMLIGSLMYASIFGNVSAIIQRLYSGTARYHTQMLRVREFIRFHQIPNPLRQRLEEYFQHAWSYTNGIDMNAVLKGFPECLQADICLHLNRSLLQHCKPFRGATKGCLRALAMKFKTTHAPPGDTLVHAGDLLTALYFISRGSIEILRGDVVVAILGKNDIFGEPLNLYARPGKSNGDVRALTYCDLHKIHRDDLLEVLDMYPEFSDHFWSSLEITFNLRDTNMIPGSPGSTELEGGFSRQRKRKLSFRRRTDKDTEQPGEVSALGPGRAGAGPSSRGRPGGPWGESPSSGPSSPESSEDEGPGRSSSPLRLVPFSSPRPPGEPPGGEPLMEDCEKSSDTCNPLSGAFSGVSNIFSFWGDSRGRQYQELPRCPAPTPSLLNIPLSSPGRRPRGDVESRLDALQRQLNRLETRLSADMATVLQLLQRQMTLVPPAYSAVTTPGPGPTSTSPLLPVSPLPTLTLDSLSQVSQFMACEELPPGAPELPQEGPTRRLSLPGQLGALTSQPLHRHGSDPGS
# Text: For the purpose of a risk evaluation of QT interval extension of electrocardiogram, using the HEK293 cell that was made express human ether-a-go-go related gene (hERG) channel, the activity on delayed rectification K^+ current (IKr) playing an important role in a cardiac ventricle repolarization process was examined.
# Using an automatic patch-clamp system (PatchXpress 7000A, Axon Instruments Inc.), by a whole-cell patch-clamp method, after the cell was maintained at a membrane potential of −80 mV, IKr induced on giving depolarizing stimulation of +50 mV for 2 seconds and further repolarizing stimulation of −50 mV for 2 seconds was recorded. After generated current became stable, extracellular fluid (NaCl: 137 mmol/L, KCl: 4 mmol/L, CaCl2.2H2O: 1.8 mmol/L, MgCl2.6H2O: 1 mmol/L, glucose: 10 mmol/L, HEPES (4-(2-hydroxyethyl)-1-piperazineethanesulfonic acid): 10 mmol/L, pH=7.4) dissolving a test substance at an intended concentration was applied to the cell for 10 minutes under room temperature condition. From the IKr obtained, using an analysis soft (DataXpress ver. 1, Molecular Devices Corporation), a current value in a membrane potential maintained was used as a standard, and the absolute value of the maximum tail current was measured. Moreover, an inhibition ratio for the maximum tail current prior to the application of the test substance was calculated, and then compared with a group of media-application (0.1% dimethylsulfoxide solution) to evaluate influence of the test substance on IKr.
# Solubility test = type: physicochemical; conditions: 25 °C, fassgf or other biorelevant, kinetic from dmso stock, artificial intestinal juice pH 6.8, 1% DMSO, 25 degrees Celsius
# Protocol: 10 mM compound solution was prepared using DMSO, and then 6 μL of the compound solution was added to 594 μL of artificial intestinal juice in pH 6.8 (to 250 mL of 0.2 mol/L potassium dihydrogen phosphate reagent solution was added 118 mL of 0.2 mol/L NaOH reagent solution and water to provide a final volume of 1000 mL). After standing at 25 degrees Celsius for 16 hours, the mixed solution was filtrated with suction. The filtrate was diluted twice with methanol/water (1/1), and then a concentration in the filtration was measured with HPLC or LC/MS/MS by the absolute calibration method.
# Sequence of PI-3 kinase γ (P48736 whole entry): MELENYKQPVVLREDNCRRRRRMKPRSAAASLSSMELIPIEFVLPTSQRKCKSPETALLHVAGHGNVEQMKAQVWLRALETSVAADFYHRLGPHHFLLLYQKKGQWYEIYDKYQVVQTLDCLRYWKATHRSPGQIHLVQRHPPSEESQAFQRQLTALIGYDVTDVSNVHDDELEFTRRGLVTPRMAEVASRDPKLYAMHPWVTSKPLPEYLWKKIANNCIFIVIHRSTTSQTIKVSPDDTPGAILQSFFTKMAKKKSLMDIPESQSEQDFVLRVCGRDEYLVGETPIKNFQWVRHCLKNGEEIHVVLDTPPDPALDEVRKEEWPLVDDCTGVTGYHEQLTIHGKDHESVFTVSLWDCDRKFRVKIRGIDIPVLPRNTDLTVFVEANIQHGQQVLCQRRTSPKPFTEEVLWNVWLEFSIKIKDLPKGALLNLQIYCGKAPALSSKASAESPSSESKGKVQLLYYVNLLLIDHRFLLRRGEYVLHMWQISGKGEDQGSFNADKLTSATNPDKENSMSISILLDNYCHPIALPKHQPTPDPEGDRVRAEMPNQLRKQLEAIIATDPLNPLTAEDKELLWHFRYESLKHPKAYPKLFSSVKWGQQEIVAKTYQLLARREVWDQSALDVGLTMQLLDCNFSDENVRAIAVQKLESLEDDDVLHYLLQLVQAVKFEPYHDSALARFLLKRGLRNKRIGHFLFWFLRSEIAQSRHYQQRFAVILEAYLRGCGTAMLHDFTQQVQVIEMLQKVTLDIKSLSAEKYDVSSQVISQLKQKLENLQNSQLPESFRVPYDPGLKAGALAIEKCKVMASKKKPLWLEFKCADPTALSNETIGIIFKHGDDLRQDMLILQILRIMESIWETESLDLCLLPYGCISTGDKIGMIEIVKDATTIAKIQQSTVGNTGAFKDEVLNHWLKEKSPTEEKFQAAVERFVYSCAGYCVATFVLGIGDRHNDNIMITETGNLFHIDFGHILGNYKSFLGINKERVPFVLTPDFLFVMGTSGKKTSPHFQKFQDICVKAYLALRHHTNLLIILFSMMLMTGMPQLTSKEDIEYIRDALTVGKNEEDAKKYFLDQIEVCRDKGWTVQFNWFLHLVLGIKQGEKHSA
inhibition at 50 µM (PI-3 kinase γ),Compound,other results
84%,CNC(=O)Nc1cn2nc(-c3cccc(C(N)=O)c3)ccc2n1 [Compound I-29],Amount of the test compound remained after the reaction [1]: 98.8%
102%,CNC(=O)Nc1cn2nc(-c3cccc(N(C)C)c3)ccc2n1 [Compound I-143],Inhibition ratio for the maximum tail current (IKr) [3]: 7.8%
84%,CNC(=O)Nc1cn2nc(-c3cccc(S(C)(=O)=O)c3)ccc2n1 [Compound I-75],solubility at 16 h (Solubility test): > 50 µM
86%,CNC(=O)Nc1cn2nc(-c3cccnc3)ccc2n1 [Compound I-37],AKT phosphorylation inhibition ratio [2]: 86.7%; solubility at 16 h (Solubility test): > 50 µM; Amount of the test compound remained after the reaction [1]: 96.8%
81%,CNC(=O)Nc1cn2nc(-c3cccc(C(=O)N4CCCC4)c3)ccc2n1 [Compound I-137],Inhibition ratio for the maximum tail current (IKr) [3]: 8.4%
92%,CNC(=O)Nc1cn2nc(C(=O)c3ccccc3)ccc2n1 [Compound I-280],Inhibition ratio for the maximum tail current (IKr) [3]: 5.8%
89%,CNC(=O)Nc1cn2nc(-c3cccc(C(=O)O)c3)ccc2n1 [Compound I-28],solubility at 16 h (Solubility test): > 50 µM; Amount of the test compound remained after the reaction [1]: 98.6%
71%,CNC(=O)Nc1cn2nc(C(=O)N[C@@H](C)C(N)=O)ccc2n1 [Compound I-121],
85%,CNC(=O)Nc1cn2nc(-c3cccc(C(C)=O)c3)ccc2n1 [Compound I-55],
80%,CNC(=O)Nc1cn2nc(C(=O)Nc3ccc(C(=O)O)cc3)ccc2n1 [Compound I-52],

# The next lines start with the compound.
Compound,inhibition at 50 µM (PI-3 kinase γ),other results
COc1cccc(-c2ccc3nc(NC(=O)Nc4ccccc4)cn3n2)c1 [Compound I-118],64%,Amount of the test compound remained after the reaction [1]: 95.9%
COc1cccc(-c2ccc3nc(NC(=O)NCCCS(=O)(=O)c4ccccc4)cn3n2)c1 [Compound I-266],,AKT phosphorylation inhibition ratio [2]: 90.1%
COc1cccc(-c2ccc3nc(NC(=O)NO)cn3n2)c1 [Compound I-274],88%,AKT phosphorylation inhibition ratio [2]: 82.6%
COc1cccc(-c2ccc3nc(NC(=O)NCCO)cn3n2)c1 [Compound I-270],82%,solubility at 16 h (Solubility test): > 50 µM
CNC(=O)Nc1cn2nc(-c3cccc(CCCO)c3)ccc2n1 [Compound I-136],79%,solubility at 16 h (Solubility test): > 50 µM
CCOC(=O)c1nc[nH]c1C(=O)Nc1cn2nc(-c3cccc(OC)c3)ccc2n1 [Compound I-208],,Inhibition ratio for the maximum tail current (IKr) [3]: 0.5%
CCC(C)C(=O)Nc1cn2nc(-c3cccc(OC)c3)ccc2n1 (stereo not shown) [Compound I-182],98%,Inhibition ratio for the maximum tail current (IKr) [3]: 9.3%
CCNC(=O)Nc1cn2nc(-c3cccc(OC)c3)ccc2n1 [Compound I-119],96%,AKT phosphorylation inhibition ratio [2]: 92.9%
COc1cccc(-c2ccc3nc(NC(=O)CCCn4cncn4)cn3n2)c1 [Compound I-210],85%,Amount of the test compound remained after the reaction [1]: 97%
COc1cccc(-c2ccc3nc(NC(=O)c4ccccc4Cl)cn3n2)c1 [Compound I-163],58%,Amount of the test compound remained after the reaction [1]: 98.1%
CNC(=O)Nc1cn2nc(-c3ccc(-c4ccccc4)s3)ccc2n1 [Compound I-133],65%,
COc1cccc(-c2ccc3nc(NC(=O)CC(C)CC(C)(C)C)cn3n2)c1 (stereo not shown) [Compound I-164],89%,
COc1cccc(-c2ccc3nc(NC(=O)NCCCN4CCCC4=O)cn3n2)c1 [Compound I-235],78%,
COc1cccc(-c2ccc3nc(NC(=O)c4ccc5[nH]nnc5c4)cn3n2)c1 [Compound I-177],85%,
CNC(=O)Nc1cn2nc(-c3ccoc3)ccc2n1 [Compound I-76],72%,
CNC(=O)Nc1cn2nc(Nc3cccc(OCc4ccccc4)c3)ccc2n1 [Compound I-53],74%,
COc1cccc(-c2ccc3nc(NC(=O)Nc4cccs4)cn3n2)c1 [Compound I-108],89%,
COc1cccc(-c2ccc3nc(NC(=O)NCC(=O)OC(C)(C)C)cn3n2)c1 [Compound I-248],71%,Inhibition ratio for the maximum tail current (IKr) [3]: 6.7%
COc1cccc(-c2ccc3nc(NC(=O)c4ccc(OC)c(OC)c4)cn3n2)c1 [Compound I-198],57%,
CNC(=O)Nc1cn2nc(-c3cccc(COC)c3)ccc2n1 [Compound I-132],78%,
